Data: patent US7625917B2, “Thiolesters and uses thereof” (priority 1998, dated 2009)
Like-named read-outs stand apart in the source and are kept apart here.

Experiments:
HIV-1RF = assay: XTT cytoprotection assay (antiviral activity); format: cell-based; settings: for EC50: read-out: EC50; for loss of antiviral activity of BITA vs disulfide form, fold decrease: from Table 2
From the text: One exemplary means to determine antiviral activity is with CEM-SS cells and virus (e.g., HIV-1RF) (MOI=0.01) using the XTT (2,3-bis[2-methoxy-4-nitro-5-sulfophenyl]-5-[(phenylamino)carbonyl]-2H-tetrazolium hydroxide) cytoprotection assay, as described by Rice (1993) PNAS 90:9721-9724, and Rice (1997) Antimicrob. Agents Chemother. 41:419-426. Briefly, cells are infected with HIV-1 RF (or other virus to be tested) in the presence of various dilutions of test compounds (thiolesters and controls). The cultures are incubated for seven days. During this time control cultures without protective compounds (i.e., compounds with anti-viral activity) replicate virus, induce syncytia, and result in about 90% cell death. The cell death is measured by XTT dye reduction. XTT is a soluble tetrazolium dye that measures mitochondrial energy output, similar to MTT. Positive controls using dextran sulfate (an attachment inhibitor) or 3′-Azido-2′-3′-dideoxythymidine, AZT (a reverse transcriptase inhibitor) are added to each assay. Individual assays are done in duplicate using a sister plate method.
Effective antiviral concentrations providing 50% cytoprotection (EC50), and cellular growth inhibitory concentrations causing 50% cytotoxicity (IC50) are calculated.

CEM-SS cells = assay: cells; format: cell-based
Description: Agents Chemother. […] Briefly, cells are infected with HIV-1 RF (or other virus to be tested) in the presence of various dilutions of test compounds (thiolesters and controls). The cultures are incubated for seven days. […] The cell death is measured by XTT dye reduction. XTT is a soluble tetrazolium dye that measures mitochondrial energy output, similar to MTT. Positive controls using dextran sulfate (an attachment inhibitor) or 3′-Azido-2′-3′-dideoxythymidine, AZT (a reverse transcriptase inhibitor) are added to each assay. Individual assays are done in duplicate using a sister plate method.

[1] = biological target: T1, recombinant HIV-1 NCp7 protein (Human immunodeficiency virus type 1 group M subtype B, UniProt P03347); assay: Trp37 zinc finger fluorescence (zinc ejection) assay; format: biochemical
T1 construct: recombinant HIV-1 NCp7 protein
Description: Zinc finger reactivity was measured using a Zn specific fluorochrome, TSQ, N-(6-methoxy-8-quinolyl)-p-toluenesulfonamide, assay or a Trp37 zinc finger fluorescence assay. Fluorescent measurements of the Trp37 residue in the C-terminal finger of recombinant HIV-1 NCp7 protein were performed as described by Rice (1995) Science 270:1194-1197; Rice (1997) Antimicrob. Agents Chemother. 41:419-426. Measurement of Zn ejection from both fingers was measured using the Zn-selective fluorchrome probe TSQ (Molecular Probes, Eugene Oreg.) as described by Rice (1996) J. Med. Chem 39:3606-3616. […] Briefly, 50 nM NCp7 was treated with test compounds for 1 hour at RT in […] buffer containing 10% glycerol and 50 mM Tris-HCl (pH 7.5). Labeled oligomer (0.1 picomole, end labeled [^32P] was added in an equal volume of buffer containing 10% glycerol, 50 mM Tris-HCl (pH 7.5), 400 mM KCl and 40 mM MgCl2. The reaction was continued for 15 min at room temperature, and a total of […] (or ¼ of the total reaction volume) was separated on nondenaturing 4.5% polyacrylamide gels in 0.5× Tris-Borate electrophoresis buffer. NCp7-oligomer complexes were visualized by autoradiography.
Changes in the intrinsic fluorescence of aromatic protein moieties are commonly used to monitor a reaction which involves a change in protein conformation. In the present invention, fluorescence can be used to monitor the loss of metal ion from a zinc finger, e.g., the loss of zinc from a CCHC retroviral zinc finger protein, after contact with a thiolester of the invention. The intrinsic fluorescence of Trp37 in the second zinc finger of HIV-1 NC protein has been used to monitor nucleic acid binding and conformation of the zinc finger complex (see, Summers (1992) supra).
Zinc ejection is measured by the ability of compounds to chemically attack the cysteines in purified NCp7 protein resulting in a loss of fluorescence due to the. movement of the tryptophan 37 residue […] position on the protein. Zinc ejection is measured and expressed as either percent decrease in total fluorescence or decrease in relative fluorescence units per min during a 30 min assay (RFU/min). A thiolester is considered within the scope of the invention if any amount of zinc ejection is detected.

[2] = Table 1, 50% cytotoxicity, read-out: IC50
[3] = Table 2, 50% cytotoxicity, read-out: IC50
[4] = Table 4, 50% cytotoxicity, read-out: IC50

Structure (SMILES): CC(=O)NS(=O)(=O)c1ccc(-n2sc3ccccc3c2=O)cc1 [Compound 2 BITA, N-[4-(3-oxo-3H-benz[d]isothiazol-2-yl)phenylsulfonyl] acetamide]
- EC50 (HIV-1RF; Human immunodeficiency virus 1, Table 1): 12.6 µM
- IC50 (CEM-SS cells; Homo sapiens, CEM-SS, Table 1, 50% cytotoxicity, read-out: IC50): 34 µM

Structure (SMILES): CC(=O)NS(=O)(=O)c1ccc(NC(=O)c2ccccc2SSc2ccccc2C(=O)Nc2ccc(S(=O)(=O)NC(C)=O)cc2)cc1 [Compound 2 D, N,N′-(2,2′-dithiodibenzoyl)-bis-sulfacetamide]
- EC50 (HIV-1RF; Table 1): 1.5 µM
- IC50 (CEM-SS cells; [2]): > 200 µM

Structure (SMILES): O=C(NS(=O)(=O)c1ccc(-n2sc3ccccc3c2=O)cc1)c1ccccc1 [Compound 3 BITA]
- EC50 (HIV-1RF; Table 1): 9.3 µM
- IC50 (CEM-SS cells; [2]): 49.5 µM

Structure (SMILES): O=C(NS(=O)(=O)c1ccc(NC(=O)c2ccccc2SSc2ccccc2C(=O)Nc2ccc(S(=O)(=O)NC(=O)c3ccccc3)cc2)cc1)c1ccccc1 [Compound 3 D]
- EC50 (HIV-1RF; Table 1): 3.8 µM
- IC50 (CEM-SS cells; [2]): 54.1 µM

Structure (SMILES): O=c1c2ccccc2sn1-c1ccc(S(=O)(=O)Nc2ccc(Cl)nn2)cc1 [Compound 4 BITA]
- EC50 (HIV-1RF; Table 1): 7.1 µM
- IC50 (CEM-SS cells; [2]): 19.2 µM

Structure (SMILES): O=C(Nc1ccc(S(=O)(=O)Nc2ccc(Cl)nn2)cc1)c1ccccc1SSc1ccccc1C(=O)Nc1ccc(S(=O)(=O)Nc2ccc(Cl)nn2)cc1 [Compound 4 D]
- EC50 (HIV-1RF; Table 1): 2.9 µM
- IC50 (CEM-SS cells; [2]): 18.3 µM

Structure (SMILES): O=c1c2ccccc2sn1-c1ccc(S(=O)(=O)Nc2ncccn2)cc1 [Compound 5 BITA]
- EC50 (HIV-1RF; Table 1): 6.5 µM
- IC50 (CEM-SS cells; [2]): 50.8 µM

Structure (SMILES): O=C(Nc1ccc(S(=O)(=O)Nc2ncccn2)cc1)c1ccccc1SSc1ccccc1C(=O)Nc1ccc(S(=O)(=O)Nc2ncccn2)cc1 [Compound 5 D]
- EC50 (HIV-1RF; Table 1): 2 µM
- IC50 (CEM-SS cells; [2]): 46.4 µM

Structure (SMILES): COc1cc(NS(=O)(=O)c2ccc(-n3sc4ccccc4c3=O)cc2)nc(OC)n1 [Compound 6 BITA]
- EC50 (HIV-1RF; Table 1): 7.6 µM
- IC50 (CEM-SS cells; [2]): 56.6 µM

Structure (SMILES): COc1cc(NS(=O)(=O)c2ccc(NC(=O)c3ccccc3SSc3ccccc3C(=O)Nc3ccc(S(=O)(=O)Nc4cc(OC)nc(OC)n4)cc3)cc2)nc(OC)n1 [Compound 6 D]
- EC50 (HIV-1RF; Table 1): 2.1 µM
- IC50 (CEM-SS cells; [2]): 52.5 µM

Structure (SMILES): COc1ccnc(NS(=O)(=O)c2ccc(-n3sc4ccccc4c3=O)cc2)n1 [Compound 7 BITA]
- EC50 (HIV-1RF; Table 1): 8.8 µM
- IC50 (CEM-SS cells; [2]): 57.4 µM

Structure (SMILES): COc1ccnc(NS(=O)(=O)c2ccc(NC(=O)c3ccccc3SSc3ccccc3C(=O)Nc3ccc(S(=O)(=O)Nc4nccc(OC)n4)cc3)cc2)n1 [Compound 7 D]
- EC50 (HIV-1RF; Table 1): 4.2 µM
- IC50 (CEM-SS cells; [2]): 56.7 µM

Structure (SMILES): COc1cnc(NS(=O)(=O)c2ccc(-n3sc4ccccc4c3=O)cc2)nc1 [Compound 8 BITA]
- EC50 (HIV-1RF; Table 1): 17.8 µM
- IC50 (CEM-SS cells; [2]): 57.6 µM

Structure (SMILES): COc1cnc(NS(=O)(=O)c2ccc(NC(=O)c3ccccc3SSc3ccccc3C(=O)Nc3ccc(S(=O)(=O)Nc4ncc(OC)cn4)cc3)cc2)nc1 [Compound 8 D]
- EC50 (HIV-1RF; Table 1): 2.1 µM
- IC50 (CEM-SS cells; [2]): 55.5 µM

Structure (SMILES): Cc1cc(C)nc(NS(=O)(=O)c2ccc(-n3sc4ccccc4c3=O)cc2)n1 [Compound 9 BITA]
- EC50 (HIV-1RF; Table 1): 6.9 µM
- IC50 (CEM-SS cells; [2]): 17.1 µM

Structure (SMILES): Cc1cc(C)nc(NS(=O)(=O)c2ccc(NC(=O)c3ccccc3SSc3ccccc3C(=O)Nc3ccc(S(=O)(=O)Nc4nc(C)cc(C)n4)cc3)cc2)n1 [Compound 9 D]
- EC50 (HIV-1RF; Table 1): 1.6 µM
- IC50 (CEM-SS cells; [2]): 32.2 µM

Structure (SMILES): COc1ccc(NS(=O)(=O)c2ccc(-n3sc4ccccc4c3=O)cc2)nn1 [Compound 12 BITA]
- EC50 (HIV-1RF; Table 1): 22.6 µM
- IC50 (CEM-SS cells; [2]): 55.3 µM

Structure (SMILES): COc1ccc(NS(=O)(=O)c2ccc(NC(=O)c3ccccc3SSc3ccccc3C(=O)Nc3ccc(S(=O)(=O)Nc4ccc(OC)nn4)cc3)cc2)nn1 [Compound 12 D]
- EC50 (HIV-1RF; Table 1): 4.2 µM
- IC50 (CEM-SS cells; [2]): 53.8 µM

Structure (SMILES): O=c1c2ccccc2sn1-c1ccc(S(=O)(=O)Nc2cnc3ccccc3n2)cc1 [Compound 17 BITA]
- EC50 (HIV-1RF; Table 1): 9.2 µM
- IC50 (CEM-SS cells; [2]): 54.7 µM

Structure (SMILES): O=C(Nc1ccc(S(=O)(=O)Nc2cnc3ccccc3n2)cc1)c1ccccc1SSc1ccccc1C(=O)Nc1ccc(S(=O)(=O)Nc2cnc3ccccc3n2)cc1 [Compound 17 D]
- EC50 (HIV-1RF; Table 1): 0.72 µM
- IC50 (CEM-SS cells; [2]): 22.2 µM

Structure (SMILES): Cc1cc(NS(=O)(=O)c2ccc(-n3sc4ccccc4c3=O)cc2)nc(C)n1 [Compound 19 BITA]
- EC50 (HIV-1RF; Table 1): 6.5 µM
- IC50 (CEM-SS cells; [2]): 39.7 µM

Structure (SMILES): Cc1cc(NS(=O)(=O)c2ccc(NC(=O)c3ccccc3SSc3ccccc3C(=O)Nc3ccc(S(=O)(=O)Nc4cc(C)nc(C)n4)cc3)cc2)nc(C)n1 [Compound 19 D]
- EC50 (HIV-1RF; Table 1): 1.9 µM
- IC50 (CEM-SS cells; [2]): 18.2 µM

Structure (SMILES): Cc1noc(NS(=O)(=O)c2ccc(-n3sc4ccccc4c3=O)cc2)c1C [Compound 20 BITA]
- EC50 (HIV-1RF; Table 1): 12.8 µM
- IC50 (CEM-SS cells; [2]): 39 µM

Structure (SMILES): Cc1noc(NS(=O)(=O)c2ccc(NC(=O)c3ccccc3SSc3ccccc3C(=O)Nc3ccc(S(=O)(=O)Nc4onc(C)c4C)cc3)cc2)c1C [Compound 20 D]
- EC50 (HIV-1RF; Table 1): 2.5 µM
- IC50 (CEM-SS cells; [2]): 44.2 µM

Structure (SMILES): NC(N)=NS(=O)(=O)c1ccc(NC(=O)c2ccccc2SSc2ccccc2C(=O)Nc2ccc(S(=O)(=O)N=C(N)N)cc2)cc1 [Compound 21 D]
- EC50 (HIV-1RF; Table 1): 111 µM
- IC50 (CEM-SS cells; [2]): > 316 µM

Structure (SMILES): NS(=O)(=O)c1ccc(NS(=O)(=O)c2ccc(-n3sc4ccccc4c3=O)cc2)cc1 [Compound 22 BITA]
- EC50 (HIV-1RF; Table 1): 6.2 µM
- IC50 (CEM-SS cells; [2]): 18.1 µM

Structure (SMILES): NS(=O)(=O)c1ccc(NS(=O)(=O)c2ccc(NC(=O)c3ccccc3SSc3ccccc3C(=O)Nc3ccc(S(=O)(=O)Nc4ccc(S(N)(=O)=O)cc4)cc3)cc2)cc1 [Compound 22 D]
- EC50 (HIV-1RF; Table 1): 2.3 µM
- IC50 (CEM-SS cells; read-out: toxicity / IC50): 43 µM

Structure (SMILES): NS(=O)(=O)c1ccc(Cn2sc3ccccc3c2=O)cc1 [Compound 23 BITA]
- EC50 (HIV-1RF; Table 2): 13.8 µM
- loss of antiviral activity of BITA vs disulfide form, fold decrease (HIV-1RF): 42 fold
- IC50 (CEM-SS cells; read-out: toxicity / IC50): 53.7 µM

Structure (SMILES): NS(=O)(=O)c1ccc(CCn2sc3ccccc3c2=O)cc1 [Compound 24 BITA]
- EC50 (HIV-1RF; Table 2): 2 µM
- loss of antiviral activity of BITA vs disulfide form, fold decrease (HIV-1RF): 5 fold
- IC50 (CEM-SS cells; [3]): 45.5 µM

Structure (SMILES): NS(=O)(=O)c1ccc(CCNC(=O)c2ccccc2SSc2ccccc2C(=O)NCCc2ccc(S(N)(=O)=O)cc2)cc1 [Compound 24 D, N,N′-(2,2′-dithiodibenzoyl)-bis-4-(2-aminoethyl)benzene-sulfonamide]
- EC50 (HIV-1RF; Table 2): 0.41 µM
- IC50 (CEM-SS cells; [3]): 52.8 µM

Structure (SMILES): Nc1cccc(S(=O)(=O)c2cccc(NC(=O)c3ccccc3SSc3ccccc3C(=O)Nc3cccc(S(=O)(=O)c4cccc(N)c4)c3)c2)c1 [Compound 35]
- IC50 (CEM-SS cells; [4]): 81.5 µM
- zinc finger reactivity / zinc ejection rate [1]: 0.92 RFU/min

Structure (SMILES): CC(=O)Nc1cccc(S(=O)(=O)c2cccc(NC(=O)c3ccccc3SSc3ccccc3C(=O)Nc3cccc(S(=O)(=O)c4cccc(NC(C)=O)c4)c3)c2)c1 [Compound 36]
- IC50 (CEM-SS cells; [4]): 5.9 µM
- zinc finger reactivity / zinc ejection rate [1]: 2 RFU/min
